Measured values as given in patent US8841312B2, “Fused pyridine, pyrimidine and triazine compounds as cell cycle inhibitors” (Amgen Inc., priority 2007, dated 2014).

Biological target: Cdk4/CyclinD1 (Homo sapiens (Human), UniProt P11802)
Test: Cdk4 kinase inhibition assay with recombinant Cdk4/CyclinD1, Rb substrate, [33P]-ATP filter plate
Format: biochemical
Conditions: 25 μM ATP, read-out: Cdk 4 IC50
Description: The Cdk4 and Cdk6 inhibitory activity of the compounds is measured with a kinase inhibition assay using recombinant Cdk4/CyclinD1 or Cdk6/CyclinD3 protein complexes. The protein substrate used in the assay is the retinoblastoma protein (Rb). The kinase reactions are carried out in a 96-well filter plate (MSDV N6B50, Millipore). […] The mixture is incubated at room temperature for 1 hour and the proteins precipitated with an equal volume of 20% TCA. The plates are washed with 10% TCA according to the manufacturer's instruction and dried at room temperature. The amount of the phosphorylated Rb is determined with a TopCount (PerkinElmer). The IC50 of a compound is determined by nonlinear regression curve fitting using software program Prism 5 (GraphPad Software).

Chain of Cdk4/CyclinD1 (P11802 whole entry): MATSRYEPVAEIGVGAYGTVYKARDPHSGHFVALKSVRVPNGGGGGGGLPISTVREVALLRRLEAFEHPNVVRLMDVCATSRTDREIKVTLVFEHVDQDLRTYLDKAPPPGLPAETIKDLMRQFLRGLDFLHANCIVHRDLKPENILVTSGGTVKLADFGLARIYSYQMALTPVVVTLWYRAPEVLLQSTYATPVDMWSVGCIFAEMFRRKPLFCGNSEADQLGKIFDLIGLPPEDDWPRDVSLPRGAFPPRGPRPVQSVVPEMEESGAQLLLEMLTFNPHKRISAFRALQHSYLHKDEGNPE
Chain of Cdk4/CyclinD1 (P24385 whole entry partner): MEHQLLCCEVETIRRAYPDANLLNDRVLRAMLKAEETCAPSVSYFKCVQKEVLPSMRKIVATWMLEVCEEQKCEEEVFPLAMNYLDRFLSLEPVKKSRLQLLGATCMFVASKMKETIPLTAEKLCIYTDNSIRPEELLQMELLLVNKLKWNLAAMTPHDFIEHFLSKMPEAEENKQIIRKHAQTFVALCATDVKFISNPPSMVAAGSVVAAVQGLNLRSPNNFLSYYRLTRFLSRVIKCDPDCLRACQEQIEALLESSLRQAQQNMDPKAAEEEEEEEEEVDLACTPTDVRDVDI

First: CN(C)C1CCN(c2ccc(Nc3ncc4c5ccncc5n(C5CCS(=O)(=O)CC5)c4n3)nn2)CC1 [Example 279, N-(6-(4-(dimethylamino)-1-piperidinyl)-3-pyridazinyl)-9-(1,1-dioxidotetrahydro-2H-thiopyran-4-yl)-9H-pyrido[4′,3′:4,5]pyrrolo[2,3-d]pyrimidin-2-amine]
Second: CN(C)C1CCN(c2ccc(Nc3ncc4c5ccncc5n([C@H]5CC[C@H](O)CC5)c4n3)nn2)CC1 [Example 287, Trans-4-(2-((6-(4-(dimethylamino)-1-piperidinyl)-3-pyridazinyl)amino)-9H-pyrido[4′,3′:4,5]pyrrolo[2,3-d]pyrimidin-9-yl)cyclohexanol]
The IC50 of the first is 4.8-fold higher: 590 nM for the first, 123 nM for the second.

Going from `O=C(c1ccc(Nc2ncc3c4ccnc(O)c4n(C4CCCC4)c3n2)nc1)N1CCNCC1` [Example 223, 9-cyclopentyl-2-((5-(1-piperazinylcarbonyl)-2-pyridinyl)amino)-9H-pyrido[4′,3′:4,5]pyrrolo[2,3-d]pyrimidin-8-ol] to `C[C@H]1CNCCN1c1ccc(Nc2ncc3c4ccnc(F)c4n(C4CCCC4)c3n2)nc1` [Example 177, 9-Cyclopentyl-8-fluoro-N-(5-((2S)-2-methyl-1-piperazinyl)-2-pyridinyl)-9H-pyrido[4′,3′:4,5]pyrrolo[2,3-d]pyrimidin-2-amine], the IC50 falls from 13 nM to 5 nM (2.6-fold). The second is the more potent here.

First: c1cc2c3cnc(Nc4ccc(OC5CCNCC5)nn4)nc3n(C3CCCC3)c2cn1 [Example 268, 9-Cyclopentyl-N-(6-(4-piperidinyloxy)-3-pyridazinyl)-9H-pyrido[4′,3′:4,5]pyrrolo[2,3-d]pyrimidin-2-amine]
Second: Fc1nccc2c3cnc(Nc4ccc(OC5CCNCC5)nn4)nc3n(C3CCCC3)c12 [Example 269, 9-Cyclopentyl-8-fluoro-N-(6-(4-piperidinyloxy)-3-pyridazinyl)-9H-pyrido[4′,3′:4,5]pyrrolo[2,3-d]pyrimidin-2-amine]
The IC50 of the first is 3.2-fold lower: 11 nM for the first, 35 nM for the second. The first is the more potent here.

Going from `CN(C)CC(=O)N1CCN(c2ccc(Nc3ncc4c5ccnc(F)c5n(C5CCCC5)c4n3)nc2)CC1` [Example 193, 9-Cyclopentyl-N-(5-(4-((dimethylamino)acetyl)-1-piperazinyl)-2-pyridinyl)-8-fluoro-9H-pyrido[4′,3′:4,5]pyrrolo[2,3-d]pyrimidin-2-amine] to `CC(=O)OCC(=O)N1CCN(c2ccc(Nc3ncc4c5ccnc(F)c5n(C5CCCC5)c4n3)nc2)CC1` [Example 194, 2-(4-(6-((9-cyclopentyl-8-fluoro-9H-pyrido[4′,3′:4,5]pyrrolo[2,3-d]pyrimidin-2-yl)amino)-3-pyridinyl)-1-piperazinyl)-2-oxoethyl acetate], the IC50 rises from 68 nM to 600 nM (8.8-fold). The first is the more potent here.

Compared with `OC[C@@H]1CN(c2ccc(Nc3ncc4c5ccncc5n(C5CCCC5)c4n3)nc2)CCN1` [Example 198, ((2S)-4-(6-((9-cyclopentyl-9H-pyrido[4′,3′:4,5]pyrrolo[2,3-d]pyrimidin-2-yl)amino)-3-pyridinyl)-2-piperazinyl)methanol], `O=C(CO)N1CCN(c2ccc(Nc3ncc4c5ccncc5n(C5CCCC5)c4n3)nc2)CC1` [Example 151, 2-(4-(6-((9-Cyclopentyl-9H-pyrido[4′,3′:4,5]pyrrolo[2,3-d]pyrimidin-2-yl)amino)-3-pyridinyl)-1-piperazinyl)-2-oxoethanol] is 1.5-fold lower in IC50: 4.6 nM for the first, 3 nM for the second.

First: CC1CN(c2ccc(Nc3ncc4c5cc[nH]c(=O)c5n(C5CCCC5)c4n3)nn2)CC(C)N1 (stereo not drawn) [Example 125]
Second: NC1CCCN(c2ccc(Nc3ncc4c5ccncc5n(C5CCCC5)c4n3)nn2)C1 (stereo not drawn) [Example 116]
The IC50 of the first is 6-fold higher: 12 nM for the first, 2 nM for the second. The second is the more potent here.

Compared with `O[C@@H]1CCN(c2ccc(Nc3ncc4c5ccncc5n([C@H]5CCC[C@H]5O)c4n3)nc2)C1` [Example 371], `O[C@@H]1CCN(c2ccc(Nc3ncc4c5ccncc5n([C@H]5CCC[C@@H]5O)c4n3)nn2)C1` [Example 408] is 2.8-fold lower in IC50: 123 nM for the first, 44 nM for the second. The second is the more potent here.

Compared with `O[C@@H]1CCC[C@@H]1n1c2cnccc2c2cnc(Nc3ccc(N4CCNCC4)nn3)nc21` [Example 362], `CNC1CCN(c2ccc(Nc3ncc4c5ccncc5n([C@H]5CCC[C@H]5O)c4n3)nn2)CC1` [Example 364] is 1.6-fold higher in IC50: 162 nM for the first, 258 nM for the second.

`c1cc2c3cnc(Nc4ccc(NCC5COCCN5)nn4)nc3n(C3CCCC3)c2cn1` (stereo not drawn) [Example 100] and `CN1CCN(c2ccc(Nc3ncc4c5ccncc5n(C5CCCC5)c4n3)nn2)CC1` [Example 112] are within 1.5-fold of each other in IC50: 6.2 nM for the first, 5.9 nM for the second.

Compared with `C[C@@H](O)Cn1c2cnccc2c2cnc(Nc3ccc(N4CC[C@@H](O)C4)nn3)nc21` [Example 419], `C[C@H](O)Cn1c2cnccc2c2cnc(Nc3ccc(N4CCNCC4)nn3)nc21` [Example 409] is 1.7-fold higher in IC50: 162 nM for the first, 281 nM for the second.

First: CC[C@H](C)n1c2cnccc2c2cnc(Nc3ccc(N4CCNCC4)cn3)nc21 [Example 330]
Second: CC[C@H](C)n1c2cnccc2c2cnc(Nc3ccc(N4CCN[C@@H](C)C4)cn3)nc21 [Example 329]
The IC50 of the first is 2-fold lower: 248 nM for the first, 500 nM for the second.

First: CNC1CCN(c2ccc(Nc3ncc4c5ccncc5n(C[C@@H](C)O)c4n3)nc2)CC1 [Example 425]
Second: CNC1CCN(c2ccc(Nc3ncc4c5ccncc5n([C@H](C)CO)c4n3)nc2)CC1 [Example 380]
The IC50 of the first is 3.6-fold lower: 73 nM for the first, 261 nM for the second. The first is the more potent here.

First: CNC1CCN(c2ccc(Nc3ncc4c5ccncc5n([C@@H](C)CO)c4n3)nn2)CC1 [Example 373]
Second: CC[C@H](C)n1c2cnccc2c2cnc(Nc3ccc(N4CCC(NC)CC4)nn3)nc21 [Example 334]
The IC50 of the first is 18-fold lower: 45 nM for the first, 800 nM for the second. The first is the more potent here.

Compared with `CN(C)C1CCN(c2ccc(Nc3ncc4c5ccnc(O)c5n(C5CCC(C)(C)CC5)c4n3)nn2)CC1` [Example 211, 2-((6-(4-(dimethylamino)-1-piperidinyl)-3-pyridazinyl)amino)-9-(4,4-dimethylcyclohexyl)-9H-pyrido[4′,3′:4,5]pyrrolo[2,3-d]pyrimidin-8-ol], `CN(C)C1CCN(c2ccc(Nc3ncc4c5ccncc5n(C5CCC(C)(C)CC5)c4n3)cn2)CC1` [Example 205, N-(6-(4-(dimethylamino)-1-piperidinyl)-3-pyridinyl)-9-(4,4-dimethylcyclohexyl)-9H-pyrido[4′,3′:4,5]pyrrolo[2,3-d]pyrimidin-2-amine] is 3.8-fold lower in IC50: 9.8 nM for the first, 2.6 nM for the second.

`NC1CCN(c2nc(Nc3ncc4c5ccncc5n(C5CCCC5)c4n3)ns2)CC1` [Example 131, 4-Amino-1-(3-((9-cyclopentyl-9H-pyrido[4′,3′:4,5]pyrrolo[2,3-d]pyrimidin-2-yl)amino)-5-1,2,4-thiadiazolyl)-piperidine] and `CN(C)C1CCN(c2nc(Nc3ncc4c5ccncc5n(C5CCCC5)c4n3)ns2)CC1` [Example 134] are within 1.5-fold of each other in IC50: 174 nM for the first, 190 nM for the second.

Going from `CN(C)C1CCN(c2ccc(Nc3ncc4c5ccncc5n([C@H]5CCOC5)c4n3)nc2)CC1` [Example 394] to `CNC1CCN(c2ccc(Nc3ncc4c5ccncc5n([C@@H]5CCOC5)c4n3)nc2)CC1` [Example 431], the IC50 falls from 1190 nM to 12 nM (99-fold).

First: C[C@H](CO)n1c2cnccc2c2cnc(Nc3ccc(N4CCC(N(C)C)CC4)cn3)nc21 [Example 376]
Second: CC[C@H](C)n1c2cnccc2c2cnc(Nc3ccc(N4CCC(N(C)C)CC4)cn3)nc21 [Example 326]
The IC50 of the first is 12-fold lower: 50 nM for the first, 620 nM for the second. The first is the more potent here.

`C[C@@H]1CN(c2cnc(Nc3ncc4c5ccncc5n(C5CCCC5)c4n3)cn2)CCN1` [Example 80] and `c1cc2c3cnc(Nc4ccc(N5CCC6(CCCN6)CC5)cn4)nc3n(C3CCCC3)c2cn1` [Example 231, 9-cyclopentyl-N-(5-(1,8-diazaspiro[45]dec-8-yl)-2-pyridinyl)-9H-pyrido[4′,3′:4,5]pyrrolo[2,3-d]pyrimidin-2-amine] are within 1.5-fold of each other in IC50: 3.5 nM for the first, 3.3 nM for the second.

First: C[C@H](CO)n1c2cnccc2c2cnc(Nc3ccc(N4CCNC(C)(C)C4)nn3)nc21 [Example 388]
Second: C[C@@H](CO)n1c2cnccc2c2cnc(Nc3ccc(N4CCNC(C)(C)C4)nn3)nc21 [Example 379]
The IC50 of the first is 20-fold higher: 218 nM for the first, 11 nM for the second.

First: CC1(C)CCC(n2c3nc(Nc4ccc(N5CCC(N6CCCC6)CC5)cn4)ncc3c3ccnc(O)c32)CC1 [Example 210, 9-(4,4-dimethylcyclohexyl)-2-((5-(4-(1-pyrrolidinyl)-1-piperidinyl)-2-pyridinyl)amino)-9H-pyrido[4′,3′:4,5]pyrrolo[2,3-d]pyrimidin-8-ol]
Second: CNC1CCN(c2ccc(Nc3ncc4c5ccncc5n([C@@H]5CCNC5)c4n3)nc2)CC1 [Example 340]
The IC50 of the first is 56-fold lower: 6.6 nM for the first, 370 nM for the second. The first is the more potent here.

Going from `C[C@H](O)Cn1c2cnccc2c2cnc(Nc3ccc(N4CCN[C@@H](C)C4)cn3)nc21` [Example 423] to `C[C@H](CO)n1c2cnccc2c2cnc(Nc3ccc(N4CCN[C@@H](C)C4)nn3)nc21` [Example 387], the IC50 rises from 75 nM to 227 nM (3-fold).

Going from `C[C@H](CO)n1c2cnccc2c2cnc(Nc3ccc(N4CCC(N(C)C)CC4)nn3)nc21` [Example 385] to `COCC(C)(C)n1c2cnccc2c2cnc(Nc3ccc(N4CCC(N(C)C)CC4)nn3)nc21` [Example 274, N-(6-(4-(dimethylamino)-1-piperidinyl)-3-pyridazinyl)-9-(2-methoxy-1,1-dimethylethyl)-9H-pyrido[4′,3′:4,5]pyrrolo[2,3-d]pyrimidin-2-amine], the IC50 rises from 216 nM to 1000 nM (4.6-fold).

Going from `CN(C)C1CCN(c2ccc(Nc3ncc4c5ccncc5n([C@H]5CCC[C@@H]5O)c4n3)nn2)CC1` [Example 405] to `CN(C)C1CCN(C(=O)Cc2ccc(Nc3ncc4c5ccncc5n(C5CCCC5)c4n3)nc2)CC1` [Example 243, 9-cyclopentyl-N-(5-(2-(4-(dimethylamino)-1-piperidinyl)-2-oxoethyl)-2-pyridinyl)-9H-pyrido[4′,3′:4,5]pyrrolo[2,3-d]pyrimidin-2-amine], the IC50 falls from 750 nM to 7 nM (110-fold). The second is the more potent here.

First: CN1CCN(c2nc(Nc3ncc4c5ccncc5n(C5CCCC5)c4n3)ns2)CC1 [Example 133]
Second: O=C(O)Cc1ccc(Nc2ncc3c4ccncc4n(C4CCCC4)c3n2)nc1 [Example 241, (6-((9-cyclopentyl-9H-pyrido[4′,3′:4,5]pyrrolo[2,3-d]pyrimidin-2-yl)amino)-3-pyridinyl)acetic acid]
The IC50 of the first is 1.8-fold lower: 100 nM for the first, 177 nM for the second.
